Assay results: patent EP0661044A1 (priority 1991, dated 1993)

Experiment: Entrapment of daunorubicin in distearoyl phosphatidylcholine-cholesterol vesicles using ethylenediamine citrate (ion-exchange loading)
Format: physicochemical
Settings: lipid:drug ratio approximately at least 16:1 (mol/mol as printed); 65°C for about 10 minutes; typical value
Procedure: A dry powder containing a homogenous dispersion of cholesterol and distearoylphosphatidylcholine at a 1:2 molar ratio was prepared by evaporation from a 1:1 chloroform/methanol solution. […] The lipid concentration in the resulting suspension was about 20 to 25 mg/ml. This mixture was then heated to 65°C. Next, while maintaining that temperature, the mixture was homogenized using a sonicator to produce a suspension of small unilamellar vesicles. The vesicles thus obtained had diameters principally in the range of about 40 to 80 nm with little or no particles in excess of 100 nm.
Following homogenization, the mixture underwent a buffer exchange to remove the external, unentrapped, ethylenediamine citrate. This was accomplished by subjecting the mixture to tangential flow ultrafiltration. This process removes water and small molecular weight solutes while retaining lipid vesicles and their contents. Using this process, the lactose/ethylenediamine citrate buffer external to the vesicles was replaced with 250 mM lactose/50 mM glycine. The vesicle preparation was heated to about 65°C and an amount of daunorubicin (base or suitable salt form) was added to yield a lipid to drug ratio in the range of about 16:1 to 19:1 or more (w/w), but preferably 17.4:1. […]

For `COc1cccc2c1C(=O)c1c(O)c3c(c(O)c1C2=O)C[C@@](O)(C(C)=O)C[C@@H]3O[C@H]1C[C@H](N)[C@H](O)[C@H](C)O1` [daunorubicin], the “added daunorubicin vesicle entrapped as daunorubicin-citrate” value was “greater than 90%”.
